Counter-ions that a name gives are not always drawn. Like-named read-outs stand apart in the source and are kept apart here.
Legend:
[1] = tested on: BMP2; assay: Quantitative PCR (TaqMan, ΔΔCt) of BMP2 in human mesenchymal stem cells; assay type: cell-based; settings: for fold induction at 10 µM: Homo sapiens, Mesenchymal stem cells, read-out: q-PCR Fold increase
Procedure: (§1) Human mesenchymal stem cells (LONZA, Catalog PT2501) were maintained in Mesenchymal stem cells basal media (MSCBM CAT#PT-3238). Early passage cells were plated in triplicate at 2×10^4 cells/cm^2 using six well tissue culture plates and grown in humidified 5% CO2 at 37° C. for 24 hours. Spent media was replaced by assay media of drugs to be tested in same media as above at 10 μM final concentration. Untreated cells were used as the control group. Total RNA were prepared using either TRI Reagent (Ambion, Cat. 9738), for subsequent TaqMan gene expression qPCR of BMP2. RNA concentration and integrity was assessed by absorbance 260/280 and electrophoresis in 1% Agarose with formaldehyde loading dye. For TaqMan gene expression, cDNA was synthesized from 2 μg of total RNA using the High Capacity cDNA Reverse Transcription Kit (Applied Biosystems, Cat. 4368814). The resulting cDNA were diluted 1:100 for TaqMan and amplified by real-time quantitative PCR. Gene-specific fluorescent labeled TaqMan primers for FAM-BMP2 (Applied Biosystems, Hs00154192.m1) and TaqMan reference VIC-18S ribosomal RNA (Applied Biosystems, 4310893E) were used to target gene of interest. A cocktail of universal master mix (Applied Biosystems, 4369016) were prepared individually for both set of primers which contained Taq Polymerase, dNTPs, and buffer. Template cDNA's were added separately to respective individual wells in triplicate samples. The PCR were performed on StepOne Plus Real Time System instrument (Applied Biosystems). The amplification program consisted of 1 cycle of 95° C. with 10 minute hold (hot start) followed by 50 cycles of 95° C. with 15 second annealing hold and 1 minute 60° C. specified acquisition hold. The Ct value of endogenous reference gene (i.e. 18 s) was used to control for input RNA and then used to normalize target gene (i.e. BMP2) tested from the same cDNA sample to calculate the Δ Ct, and then calibrated to an internal reference sample. Change in gene expression was determined by the expression ΔΔCt relative method.
18 compounds were confirmed positive by the more stringent qPCR techniques. […] Included in the tables is the target or common medical use for each compounds.

[2] = tested on: BMP-2; assay: BMP-2 fold change of JHU library compounds, confirmed by qPCR; assay type: cell-based, human; settings: JHU library compounds; non-treated = 1.00
Source text: To further verify the technique, a 2T3 mouse pre-osteoblast cell line derived from calvaria courtesy of Dr. Steve Harris, UTHSCSA, was utilized to visually screen the compounds of the BIOMOL library and JHU libraries, purchased from John Hopkins University including 2387 compounds (solution in wells). Specifically, Murine 2T3 were thawed from one frozen cryovial and re-seeded into two T-75 tissue culture flasks grown in Alpha MEM with 10% FBS, Glutamine, and Pen/Strip antibiotics. Cells were incubated in a humidified 37° C. under 5% CO2 for 48 hours or when cells reached 80% confluence. After reaching confluency, the 2T3 were trypsinized and resuspended in pre-warm growth media to a cell density of 5×10^4 cells/mL. Approximately 100 uL of cell suspension was seeded to a 96 well plate to give a final 5,000 cells per well. Plate was incubated overnight at 37° C. and spent media was aspirated and replace with 100 uL of growth media with 5-10 uM of presumptive drug compounds. A set of controls were untreated and treated with 10 uM of Lovastatin to be used as a visual reference morphological screening.
as §1, with “Total RNA were prepared using either TRI Reagent (Ambion, Cat. 9738), for subsequent TaqMan gene expression qPCR of BMP2.” left out, “Gene-specific fluorescent labeled TaqMan primers for FAM-BMP2 (Applied Biosystems, Hs00154192.m1) and TaqMan reference VIC-18S ribosomal RNA (Applied Biosystems, 4310893E) were used to target gene of interest.” left out, “The Ct value of endogenous reference gene (i.e. 18 s) was used to control for input RNA and then used to normalize target gene (i.e. BMP2) tested from the same cDNA sample to calculate the Δ Ct, and then calibrated to an internal reference sample.” left out
Included in the tables is the target or common medical use for each compounds.

[3] = tested on: BMP-2; assay: Real time PCR of BMP-2 gene expression in human MSC (Cells-to-Ct); assay type: cell-based; settings: BMP-2 mRNA, hMSC, 5-10 μM, 24 hours, vs untreated
Procedure: Early passage human mesenchymal stem cells (MSC) were thawed from one frozen cryo-vial and seeded into two T-75 tissue culture flasks and incubated at 37° C. for 48 hours in Alpha MEM with 10% FBS. After three days and one re-feeding, the cells were trypsinized and re-suspended in pre-warmed media at 5×10^4 cells/mL to provide 5,000 cells per well in a 96 well plate and incubated overnight at 37° C. in 5% CO2.
Each well was washed in cold PBS, lysed at room temperature for five minutes, and stop reagent added to each well to stop the lysis reaction. The final lysate was kept cold at 4° C. and used immediately as the RNA template for the reverse transcription cDNA synthesis following the TAQMAN GENE EXPRESSION CELLS TO CT KIT instructions.
The cDNA synthesis was prepared on a separate sterile 96-well PCR plate and performed on the Step One Plus Real Time PCR System instrument (Applied Biosystems) with the programming set at 37° C. for 60 minutes and an inactivation hold of 95° C. for five minutes. The final cDNA reaction was kept cold and used as the template for the TAQMAN GENE Real-Time PCR step following the recommended instructions for TAQMAN GENE EXPRESSION CELLS TO CT KIT assay. […] Template cDNA's were added separately to respective individual wells in replicate samples.
The PCR was performed on the STEPONEPLUS Real-Time System instrument (Applied Biosystems). The amplification program consisted of 1 cycle of 95° C. with 10 minute hold (hot start) and followed by 50 cycles of 95° C. with 15-second annealing hold and 1-minute 60° C. specified acquisition hold.

[4] = tested on: human mesenchymal stem cells (MSC); assay type: cell-based; set-up: key: *: Dose caused cell death; settings: hMSC, 24 hrs
[5] = BMP2 mRNA, hMSC, 10 μM, vs untreated, 18S reference, BIOMOL library (Table 2)
[6] = BMP2 mRNA, hMSC, 10 μM, vs untreated, 18S reference, positive control compounds (Table 1)
[7] = positive control compounds (Table 1)

CCN(CC)CCCC(C)Nc1c2ccc(Cl)cc2nc2ccc(OC)cc12 (stereo not shown) [Quinacrine]
fold induction at 10 µM [1, 5]: 95
Fold change (BMP-2) [2]: 722.00 fold
RT PCR Fold increase ([3]; BIOMOL library (Table 2)): 52.9 fold
cell death ([4]; 5 uM): *Quinacrine
cell death ([4]; 10 uM): *Quinacrine

COC(=O)c1ccc(O)c2nc3c(C=O)c(O)cc(O)c3nc12 [Lomofungin]
fold induction at 10 µM [1, 5]: 14.2
Fold change (BMP-2) [2]: 26.00 fold
RT PCR Fold increase ([3]; BIOMOL library (Table 2)): 32.6 fold

CC(=O)O[C@@]12CO[C@@H]1C[C@H](O)[C@@]1(C)C(=O)[C@H](O)C3=C(C)[C@@H](OC(=O)[C@H](O)[C@@H](NC(=O)OC(C)(C)C)c4ccccc4)C[C@@](O)([C@@H](OC(=O)c4ccccc4)[C@H]21)C3(C)C [Docetaxil]
q-PCR Fold increase [1, 6]: 2.7 fold
RT PCR Fold increase [3, 7]: 11.0 fold

COc1ccc(C[C@H](N)C(=O)N[C@H]2[C@@H](O)[C@H](n3cnc4c(N(C)C)ncnc43)O[C@@H]2CO)cc1 [Puromycin]
fold induction at 10 µM [1, 5]: 54.6
RT PCR Fold increase ([3]; BIOMOL library (Table 2)): 122.3 fold

CC[C@H](C)C(=O)O[C@H]1CCC=C2C=C[C@H](C)[C@H](CC[C@@H]3C[C@@H](O)CC(=O)O3)[C@H]21 [Mevastatin]
fold induction at 10 µM [1, 6]: 0.9
RT PCR Fold increase [3, 7]: 3.1 fold

CC[C@]1(O)C[C@@H]2CN(CCc3c([nH]c4ccccc34)[C@@](C(=O)OC)(c3cc4c(cc3OC)N(C)[C@H]3[C@@](O)(C(=O)OC)[C@H](OC(C)=O)[C@]5(CC)C=CCN6CC[C@]43[C@@H]65)C2)C1 [Vinblastine sulfate]
fold induction at 10 µM [1, 6]: 1.7
Fold change (BMP-2) [2]: 64.00 fold
RT PCR Fold increase [3, 7]: 9.5 fold

CN1CCc2cccc3c2[C@H]1Cc1ccc(O)c(O)c1-3 [Apomorphine r (−)]
fold induction at 10 µM [1, 5]: 7.3
RT PCR Fold increase ([3]; BIOMOL library (Table 2)): 4.6 fold

CCC(C)(C)C(=O)O[C@H]1C[C@@H](C)C=C2C=C[C@H](C)[C@H](CC[C@@H]3C[C@@H](O)CC(=O)O3)[C@H]21 [Simvastatin]
fold induction at 10 µM [1]: 2.3
RT PCR Fold increase [3, 7]: 4.2 fold

COc1cc2nc(N3CCN(C(=O)c4ccco4)CC3)nc(N)c2cc1OC [Prazosin]
fold induction at 10 µM [1, 5]: 4
RT PCR Fold increase ([3]; BIOMOL library (Table 2)): 6.8 fold

CC(C)(C)c1ccc(C(O)CCCN2CCC(C(O)(c3ccccc3)c3ccccc3)CC2)cc1 (stereo not shown) [Terfenadine]
fold induction at 10 µM [1, 5]: 10.4
RT PCR Fold increase ([3]; BIOMOL library (Table 2)): 13.9 fold

CC(C)C[C@H](NC(=O)[C@H](Cc1ccccc1)NC(=O)c1cnccn1)B(O)O [Bortezomib]
fold induction at 10 µM [1, 6]: 2.4
RT PCR Fold increase [3, 7]: 15.4 fold

CCCCN1C[C@H](O)[C@@H](O)[C@H](O)[C@H]1CO [Miglustat]
fold induction at 10 µM [1, 5]: 6.6
RT PCR Fold increase ([3]; BIOMOL library (Table 2)): 4.9 fold

CCCOc1ccc2nc(NC(=O)OC)[nH]c2c1 [Oxibendazole]
fold induction at 10 µM [1, 5]: 1.4
Fold change (BMP-2) [2]: 18.00 fold
RT PCR Fold increase ([3]; BIOMOL library (Table 2)): 4.5 fold

COC(=O)Nc1nc2cc(C(=O)c3ccc(F)cc3)ccc2[nH]1 [Flubendazole]
fold induction at 10 µM [1, 5]: 1.7
Fold change (BMP-2) [2]: 10.00 fold
RT PCR Fold increase ([3]; BIOMOL library (Table 2)): 5.6 fold

CNCCCC12CCC(c3ccccc31)c1ccccc12 [Maprotiline]
fold induction at 10 µM [1, 5]: 2.4
RT PCR Fold increase ([3]; BIOMOL library (Table 2)): 3.6 fold

CC(C)=CC[C@@H](O)C1=CC(=O)c2c(O)ccc(O)c2C1=O [Shikonin]
fold induction at 10 µM [1]: 1.5
RT PCR Fold increase [3, 7]: 23.5 fold

CC(C)C(=O)Nc1ccc([N+](=O)[O-])c(C(F)(F)F)c1 [Flutamide]
fold induction at 10 µM [1, 5]: 1.6
RT PCR Fold increase ([3]; BIOMOL library (Table 2)): 9.7 fold

COCc1c(C(C)C)nc(C(C)C)c(/C=C/[C@@H](O)C[C@@H](O)CC(=O)O)c1-c1ccc(F)cc1 [Cerivastatin]
fold induction at 10 µM [1, 6]: 11.9
RT PCR Fold increase [3, 7]: 5.3 fold

CC[C@]1(O)C[C@@H]2CN(CCc3c([nH]c4ccccc34)[C@@](C(=O)OC)(c3cc4c(cc3OC)N(C)[C@H]3[C@@](O)(C(N)=O)[C@H](O)[C@]5(CC)C=CCN6CC[C@]43[C@@H]65)C2)C1 [Vindesine]
fold induction at 10 µM [1, 6]: 1.8
RT PCR Fold increase [3, 7]: 12.4 fold

N=C(N)N1CCc2ccccc2C1 [Debrisoquin sulfate]
fold induction at 10 µM [1, 5]: 6.2
RT PCR Fold increase ([3]; BIOMOL library (Table 2)): 8.2 fold

CC(C)n1c(/C=C/C(O)CC(O)CC(=O)[O-])c(-c2ccc(F)cc2)c2ccccc21.[Na+] (stereo not shown) [Fluvastatin Na]
q-PCR Fold increase [1, 6]: 7.8 fold
RT PCR Fold increase [3, 7]: 3.2 fold

CC[C@]1(O)C[C@H]2CN(CCc3c([nH]c4ccccc34)[C@@](C(=O)OC)(c3cc4c(cc3OC)N(C=O)[C@H]3[C@@](O)(C(=O)OC)[C@H](OC(C)=O)[C@]5(CC)C=CCN6CC[C@]43[C@@H]65)C2)C1 [Vincristine sulfate]
fold induction at 10 µM [1, 6]: 1.8
Fold change (BMP-2) [2]: 57.00 fold
RT PCR Fold increase [3, 7]: 10.8 fold
